Reference: article PMC10057980, “Pharmacokinetics of Orally Applied Cannabinoids and Medical Marijuana Extracts in Mouse Nervous Tissue and Plasma: Relevance for Pain Treatment” (Pharmaceutics, 2023)

What was measured:
[1] = test system: mechanical hypersensitivity in spared nerve injury (SNI) mice; assay: Von Frey mechanical thresholds in the spared nerve injury (SNI) model; type: in vivo, C57BL/6J mice; settings: day 7 after surgery, single oral dose: 20 mg/kg pure CBD or THC, 40 mg/kg THC+ extract, 1560 mg/kg THC- extract, CBD effect at 4 h, p = 0.022 vs vehicle
Description: SNI surgery was performed as previously described. In short, mice were anesthetized by intraperitoneal (i.p.) injections of 10 mg/kg Xylazine (AniMedica GmbH—a LIVISTO company, Senden, Germany) and 100 mg/kg Ketamine (AniMedica GmbH—a LIVISTO company, Senden, Germany). The skin on the lateral surface of the thigh was incised and the sciatic nerve exposed by separating the biceps femoris muscle through incision of the connective tissue without wounding the muscle. The common peroneal and tibial nerves were ligated with 4-0 Vicryl (Sh-1 plus; Raritan, NJ, USA) and a portion of 3 mm length was excised around the ligation site. Care was taken to avoid any mechanical damage to the sural nerve. After dissection, the muscle and skin were sutured using 4-0 Vicryl. Mice were left to recover at 37 °C until they regained consciousness.
The von Frey test was performed as previously described. In brief, mice were placed in a Plexiglas chamber on an elevated iron-mesh floor and allowed to habituate before testing. […] Withdrawal thresholds were calculated according to the up-and-down method. Von Frey results were analysed using repeated measure ANOVA.

[2] = Cannabinoid and metabolite concentrations in plasma, brain and spinal cord after single oral gavage (LC-MS/MS, non-compartmental PK); settings: mice
[3] = set-up: method as in PMID 21796370; settings: CBD orally given to mice; cited from earlier work
[4] = set-up: method as in PMID 12648025, PMID 17712819, PMID 30534073; settings: cited from earlier work
[5] = high dose, oral gavage (40 mg/kg THC+ extract, 20 mg/kg pure THC), plasma, brain and spinal cord

| Structure (SMILES) | effect on mechanical withdrawal thresholds (von Frey) [1] | time of maximum CBD concentration ([2]; pure CBD compound, 1 and 20 mg/kg bodyweight, oral) | absorption rate of CBD compared with THC, brain ([2]; pure compounds, oral, brain) | absorption rate of CBD compared with THC, spinal cord ([2]; pure compounds, oral, spinal cord) | brain–plasma ratio [3] | time detectable in organs including the brain after application [4] | time of peak concentration of OH-THC ([2]; high dose, oral (40 mg/kg THC+ extract, 20 mg/kg pure THC), brain tissue) | time at which Δ9-THC was detectable in all tissues [2, 5] | time of maximum Δ9-THC concentration [2, 5] | Δ9-THC concentrations in all sample types ([2]; low dose, oral gavage (2 mg/kg THC+ extract, 1 mg/kg pure THC), plasma, brain and spinal cord) |
| --- | --- | --- | --- | --- | --- | --- | --- | --- | --- | --- |
| C=C(C)[C@@H]1CCC(C)=C[C@H]1c1c(O)cc(CCCCC)cc1O [CBD, cannabidiol] | alleviated mechanical hypersensitivity | 2 h | 2.8 fold | 1.7 fold | 3.54 | more than 24 h | – | – | – | – |
| CCCCCc1cc(O)c2c(c1)OC(C)(C)[C@@H]1CCC(C)=C[C@@H]21 [pure THC, Δ9-Tetrahydrocannabinol] | did not affect mechanical withdrawal thresholds | – | – | – | – | more than 24 h | 2 h | 1 h | 2 h | negligible concentrations |
